Data taken from patent publication US12310975B2, “Modulators of BCL6 proteolysis and associated methods of use” (Arvinas Operations, Inc., priority 2019, dated 2025).

Tests used:
[1] = molecular target: T1, BCL6 (Homo sapiens (Human), UniProt P41182); experiment: BCL6 TR-FRET assay (BCL6-Avitag-Biotin / BCoR-Cy5 peptide); type: binding; details: class symbols A-D; read-out: IC50 (nM)***
Summary of the method: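 After 30 min room-temperature preincubation of compound titrations with 2 nM biotinylated BCL6-Avitag, 100 nM Cy5-labelled BCoR peptide plus 2 nM Eu-streptavidin were added and TR-FRET read 2 h later. HEPES pH 7.5/125 mM NaCl buffer with Triton X, glutathione (or DTT) and BSA.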

[2] = molecular target: T1, BCL6; experiment: Immunofluorescence high content imaging of BCL6 degradation in T47D cells; type: cell-based; details: for Dmax: T47D, maximum, class symbols A-C; for DC50: class symbols A-D, read-out: EC50 (nM)*
Summary of the method: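 T47D cells were treated for 3 days at 37 °C with 11-point 3-fold dilutions of bifunctional degrader (final top 0.1 or 1 μM). BCL6 was detected by immunofluorescence after PFA fixation, with Hoechst and cell mask counterstains, and imaged at 10×, 4 fields/well.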

Row | Structure (SMILES) | IC50 [1] [nM] | Dmax [2] [%] | DC50 [2] [nM]
1 | CC(=O)COc1cc2cc(Nc3nc(N4CCC(CCOC5CN(c6ccc7c(c6)C(=O)N(C6CCC(=O)NC6=O)C7=O)C5)CC4)ncc3Cl)ccc2n(C)c1=O (centres unmarked) [compound 164, 5-(3-(2-(1-(5-chloro-4-((1-methyl-2-oxo-3-(2-oxopropoxy)-1,2-dihydroquinolin-6-yl)amino)pyrimidin-2-yl)piperidin-4-yl)ethoxy)azetidin-1-yl)-2-(2,6-dioxopiperidin-3-yl)isoindoline-1,3-dione] | 10 to 50 | < 50 | > 100
2 | CC(=O)COc1cc2cc(Nc3nc(N4CCC(CN5CC6(C5)CN(c5ccc7c(c5)C(=O)N(C5CCC(=O)NC5=O)C7=O)C6)CC4)ncc3Cl)ccc2n(C)c1=O (centres unmarked) [compound 165, 5-(6-((1-(5-chloro-4-((1-methyl-2-oxo-3-(2-oxopropoxy)-1,2-dihydroquinolin-6-yl)amino)pyrimidin-2-yl)piperidin-4-yl)methyl)-2,6-diazaspiro[3.3]heptan-2-yl)-2-(2,6-dioxopiperidin-3-yl)isoindoline-1,3-dione] | 10 to 50 | 50 to 70 | 10 to 50
3 | CN(C)C(=O)COc1cc2cc(Nc3nc(N4CCC(CN5CCN(c6ccc7c(c6)C(=O)N(C6CCC(=O)NC6=O)C7=O)CC5)CC4)ncc3Cl)ccc2n(C)c1=O (centres unmarked) [compound 166, 2-((6-((5-chloro-2-(4-((4-(2-(2,6-dioxopiperidin-3-yl)-1,3-dioxoisoindolin-5-yl)piperazin-1-yl)methyl)piperidin-1-yl)pyrimidin-4-yl)amino)-1-methyl-2-oxo-1,2-dihydroquinolin-3-yl)oxy)-N,N-dimethylacetamide] | 50 to 100 | < 50 | > 100
4 | CNC(=O)COc1cc2cc(Nc3nc(N4CCCC(COc5ccc(C6CCN(CC#Cc7ccc8c(c7)CN(C7CCC(=O)NC7=O)C8=O)CC6)cc5)C4)ncc3Cl)ccc2n(C)c1=O (centres unmarked) [compound 167, 2-((6-((5-chloro-2-(3-((4-(1-(3-(2-(2,6-dioxopiperidin-3-yl)-1-oxoisoindolin-5-yl)prop-2-yn-1-yl)piperidin-4-yl)phenoxy)methyl)piperidin-1-yl)pyrimidin-4-yl)amino)-1-methyl-2-oxo-1,2-dihydroquinolin-3-yl)oxy)-N-methylacetamide] | 10 to 50 | < 50 | > 100
5 | CNC(=O)COc1cc2cc(Nc3nc(N4CCC(OCCOCCOCCOCCCOc5ccc6c(c5)CN(C5CCC(=O)NC5=O)C6=O)CC4)ncc3Cl)ccc2n(C)c1=O (centres unmarked) [compound 168, 2-((6-((5-chloro-2-(4-(2-(2-(2-(3-((2-(2,6-dioxopiperidin-3-yl)-1-oxoisoindolin-5-yl)oxy)propoxy)ethoxy)ethoxy)ethoxy)piperidin-1-yl)pyrimidin-4-yl)amino)-1-methyl-2-oxo-1,2-dihydroquinolin-3-yl)oxy)-N-methylacetamide] | 10 to 50 | 50 to 70 | > 100
6 | CC(=O)COc1cc2cc(Nc3nc(N4CCC(N(C)C5CCN(c6ccc7c(c6)C(=O)N(C6CCC(=O)NC6=O)C7=O)CC5)CC4)ncc3Cl)ccc2n(C)c1=O (centres unmarked) [compound 169, 5-(4-((1-(5-chloro-4-((1-methyl-2-oxo-3-(2-oxopropoxy)-1,2-dihydroquinolin-6-yl)amino)pyrimidin-2-yl)piperidin-4-yl)(methyl)amino)piperidin-1-yl)-2-(2,6-dioxopiperidin-3-yl)isoindoline-1,3-dione] | 10 to 50 | 50 to 70 | < 10
7 | CC(=O)COc1cc2cc(Nc3nc(N4CCC(OC5CCN(c6ccc7c(c6)C(=O)N(C6CCC(=O)NC6=O)C7=O)CC5)CC4)ncc3Cl)ccc2n(C)c1=O (centres unmarked) [compound 170, 5-(4-((1-(5-chloro-4-((1-methyl-2-oxo-3-(2-oxopropoxy)-1,2-dihydroquinolin-6-yl)amino)pyrimidin-2-yl)piperidin-4-yl)oxy)piperidin-1-yl)-2-(2,6-dioxopiperidin-3-yl)isoindoline-1,3-dione] | 10 to 50 | < 50 | 50 to 100
8 | CC(=O)COc1cc2cc(Nc3nc(C#CC4CCN(c5ccc6c(c5)C(=O)N(C5CCC(=O)NC5=O)C6=O)CC4)ncc3Cl)ccc2n(C)c1=O (centres unmarked) [compound 171, 5-(4-((5-chloro-4-((1-methyl-2-oxo-3-(2-oxopropoxy)-1,2-dihydroquinolin-6-yl)amino)pyrimidin-2-yl)ethynyl)piperidin-1-yl)-2-(2,6-dioxopiperidin-3-yl)isoindoline-1,3-dione] | 10 to 50 | < 50 | 10 to 50
9 | CC(=O)COc1cc2cc(Nc3nc(N4CC(OCCN5CCN(c6ccc7c(c6)C(=O)N(C6CCC(=O)NC6=O)C7=O)CC5)C4)ncc3Cl)ccc2n(C)c1=O (centres unmarked) [compound 172, 5-(4-(2-((1-(5-chloro-4-((1-methyl-2-oxo-3-(2-oxopropoxy)-1,2-dihydroquinolin-6-yl)amino)pyrimidin-2-yl)azetidin-3-yl)oxy)ethyl)piperazin-1-yl)-2-(2,6-dioxopiperidin-3-yl)isoindoline-1,3-dione] | ≥ 100 |  | > 100
10 | CC(=O)COc1cc2cc(Nc3nc(C#CC4CCCN(Cc5ccc6c(c5)C(=O)N(C5CCC(=O)NC5=O)C6=O)C4)ncc3Cl)ccc2n(C)c1=O (centres unmarked) [compound 173, 5-((3-((5-chloro-4-((1-methyl-2-oxo-3-(2-oxopropoxy)-1,2-dihydroquinolin-6-yl)amino)pyrimidin-2-yl)ethynyl)piperidin-1-yl)methyl)-2-(2,6-dioxopiperidin-3-yl)isoindoline-1,3-dione] | ≥ 100 | < 50 | 10 to 50
11 | CNC(=O)/C=C/c1cc2cc(Nc3nc(N4CCC(CN5CCN(c6ccc7c(c6)C(=O)N(C6CCC(=O)NC6=O)C7=O)CC5)CC4)ncc3Cl)ccc2n(C)c1=O (centres unmarked) [compound 174, (E)-3-(6-((5-chloro-2-(4-((4-(2-(2,6-dioxopiperidin-3-yl)-1,3-dioxoisoindolin-5-yl)piperazin-1-yl)methyl)piperidin-1-yl)pyrimidin-4-yl)amino)-1-methyl-2-oxo-1,2-dihydroquinolin-3-yl)-N-methylacrylamide] | 10 to 50 | 50 to 70 | 
12 | CC(=O)COc1cc2cc(Nc3nc(N4CCC(CN5CCN(c6ccc7c(c6)CN(C6CCC(=O)NC6=O)C7=O)CC5)CC4)ncc3Cl)ccc2n(C)c1=O (centres unmarked) [compound 175, 3-(5-(4-((1-(5-chloro-4-((1-methyl-2-oxo-3-(2-oxopropoxy)-1,2-dihydroquinolin-6-yl)amino)pyrimidin-2-yl)piperidin-4-yl)methyl)piperazin-1-yl)-1-oxoisoindolin-2-yl)piperidine-2,6-dione] | < 10 | 50 to 70 | 
13 | CC(=O)COc1cc2cc(Nc3nc(N4CCC(CN(C)CC#Cc5ccc6c(c5)C(=O)N(C5CCC(=O)NC5=O)C6=O)CC4)ncc3Cl)ccc2n(C)c1=O (centres unmarked) [compound 176, 5-(3-(((1-(5-chloro-4-((1-methyl-2-oxo-3-(2-oxopropoxy)-1,2-dihydroquinolin-6-yl)amino)pyrimidin-2-yl)piperidin-4-yl)methyl)(methyl)amino)prop-1-yn-1-yl)-2-(2,6-dioxopiperidin-3-yl)isoindoline-1,3-dione] | ≥ 100 | < 50 | 
